Measured values from patent US20080207685A1, “Heterocyclic Compounds As Modulators Of Peroxisome Proliferator Activated Receptors, Useful For The Treatment And/Or Prevention Of Disorders Modulated By A Ppar” (Eli Lilly And Company, priority 2003, published 2008).

Tested on: HuapoAI transgenic mice
Experiment: Evaluation of triglyceride and cholesterol level in HuapoAI transgenic mice
Format: in vivo
Settings: 100 mg/kg oral gavage daily for 7 days; vehicle about 140 to 180 mg/dl
Experimental: Five to six week old male mice, transgenic for human apoAI [C57B1/6-tgn(apoa1)1rub, Jackson Laboratory, Bar Harbor, Me.] are housed five per cage (10″×20″×8″ with aspen chip bedding) with food (Purina 5001) and water available at all times. After an acclimation period of 2 weeks, animals are individually identified by ear notches, weighed and assigned to groups based on body weight. Beginning the following morning, mice are dosed daily by oral gavage for 7 days using a 20 gauge, 1½″ curved disposable feeding needle. Treatments are test compounds (30 mg/kg), a positive control (fenofibrate, 100 mg/kg) or vehicle [1% carboxymethylcellulose (w/v)/0.25% Tween80 (w/v); 0.2 ml/mouse]. […]
The animals dosed with vehicle have average triglycerides values of about 60 to 80 mg/dl, which are reduced by the positive control fenofibrate (33-58 mg/dl with a mean reduction of 37%). […] Test compounds evaluated in terms of percent increase in the area under the curve. […]
Glucose is measured […] by using commercially purchased reagents (Sigma #315-500). […] The absorbance of the dye produced is linearly related to the analyte in the sample. […] Standards (Sigma #339-11, Sigma #16-11, and Sigma #CCO0534 for glucose, triglycerides and total cholesterol, respectively), quality control plasma (Sigma #A2034), and samples (2 or 5 μl/well) are measured in duplicate using 200 μl of reagent. […]

## CC(C)OC(=O)C(C)(C)Oc1ccc(C(=O)c2ccc(Cl)cc2)cc1 [fenofibrate]
  average total serum cholesterol values: 190 to 280 mg/dL
